2 compounds from patent EP0702683B1, “06-SUBSTITUTED GUANINE DERIVATIVES, A PROCESS FOR THEIR PREPARATION AND THEIR USE IN TREATING TUMOUR CELLS” (Cancer Research Technology Limited, priority 1993, dated 1994) can be followed below.

Where two headings read alike, the source gives them in different places.

In data set [1] the test system is Chinese hamster V79 cells. As to the kind of experiment: Growth inhibition of V79 cells by inactivator alone. In kind it is cell-based. The method, then:
(§1) In order to assess the effects on cell growth alone, Xeroderma pigmentosum cells and Chinese Hamster V79 cells were exposed to increasing concentrations (up to 600µM) of selected inactivators for 2h at 37°. In some cases, the inactivators were allowed to undergo hydrolysis at 37°C for 20 hours and then added to […] in order to assess the extent to which the decomposition products of the agents might inhibit cell growth. After 6 days the extent of cell growth was determined as described above.

The next data set relates to XP cells. As to the kind of experiment: Growth inhibition of Xeroderma pigmentosum cells by inactivator alone. It counts as cell-based, human. The settings on record: inactivator alone, Figure 6, compared with V79 cells, in words. The protocol: as §1
Assay in data set [2]: as above
In kind it is cell-based, human. The note with it: human, xeroderma pigmentosum cells; Figs 5 & 6; read-out: toxic concentrations in XP cells relative to those at which sensitization to BCNU was observed. The protocol: as §1

A further data set deals with A375M cells. Kind of data set: Sensitization of A375M cells to BCNU (MTT assay). In kind it is cell-based, human. The settings on record: for A375M sensitization (D50.^C/D50.^I) 0.5uM: inactivator 0.5uM 2 hours before; for A375M sensitization (D50.^C/D50.^I) 5.0uM: inactivator 5.0uM 2 hours before. The method, then:
Sensitization of A375M cells to the cytotoxic effects of BCNU was analysed by MTT assay ^24 differing from the XTT assay described above as follows. […] After 6 days MTT solution (4mg/ml) was added and cells incubated for 3 hours at 37°C. Medium was aspirated and the resulting purple formazan crystals were solubilised in DMSO (120μl) and cell viability was quantified by measuring absorption at 540nm using a microtitre plate reader.
For orientation: Tetrazolium dyes change colour on reduction, which living cells bring about.

Data set [3] has as its target T1, ATase (Homo sapiens, UniProt P16455).
T1 sequence (P16455 1-207): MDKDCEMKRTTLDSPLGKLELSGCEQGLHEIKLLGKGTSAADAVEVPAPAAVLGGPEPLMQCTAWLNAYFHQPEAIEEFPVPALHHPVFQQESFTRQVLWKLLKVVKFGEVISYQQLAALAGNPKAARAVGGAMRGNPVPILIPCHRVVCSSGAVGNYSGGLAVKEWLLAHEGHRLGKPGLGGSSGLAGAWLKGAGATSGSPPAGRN
Kind of data set: Inactivation of ATase activity in WiDr cells. It counts as cell-based. Also noted: endogenous in cells; host or cells: Raji. The protocol:
(§2) Mammalian cells were cultured under standard conditions. For example, Raji (a human lymphoblastoid cell line from a Burkitt's lymphoma) cells were grown in suspension culture in RPMI medium supplemented with 10% horse serum. A375M cells are human melanoma cells from which the xenografts described below were established following subcutaneous injection into nude mice: WiDr cells are a human colon carcinoma cell line: Hamster+120 cells are a mitozolomide-selected subline of a Chinese hamster lung fibroblast V79 cell line called RJKO: Yoshida cells are a rat carcinosarcoma cell line and YRbus is a busulphan resistant subline thereof: XP cells are an SV40-transformed fibroblast cell line originally from the skin of a Xeroderma pigmentosum patient, pHMGhAT2b cells are a clone of these cells that have been transfected with a mammalian cell expression vector containing the human ATase cDNA and pHMGla cells are a clone that have been transfected with the expression vector only (i.e. one not containing the human ATase cDNA). Cell pellets were resuspended in cold (4°C) buffer I containing 2 µg/ml leupeptin and sonicated for 10 seconds at 12 µ peak to peak distance. After cooling in ice, the cells were sonicated for a further 10 seconds at 18 µ. […]

Data set [4] has as its target T1, ATase. Kind of data set: Inactivation of ATase activity in XP cells. It counts as cell-based. Also noted: endogenous in cells; host or cells: Raji. The protocol: as §2
The test system of data set [5] is ATase. As to the kind of experiment: Inactivation of ATase in mammalian cells, summary over cell lines. In kind it is cell-based. The settings on record: range over the cell lines of Table 5 (table head: µM; no unit in the sentence); read-out: I50 values for ATase inactivation in human, rat and Chinese hamster cells. The protocol:
Mammalian cells were cultured under standard conditions. For example, Raji (a human lymphoblastoid cell line from a Burkitt's lymphoma) cells were grown in suspension culture in RPMI medium supplemented with 10% horse serum. […]
Cells were diluted to 10^6/ml in culture medium containing either the appropriate concentration of inactivator or an equivalent volume of vehicle (DMSO). […] ATase activity was determined as described above, in duplicate sonicated cell extracts and expressed as the percentage activity remaining based on that present in the untreated controls (for example 350-450 fm/mg in Raji cells).

For data set [6], the target named is T2, ATase (Rattus norvegicus, UniProt P24528).
T2 construct: endogenous in cells; host or cells: Yoshida
T2 sequence (P24528 1-209): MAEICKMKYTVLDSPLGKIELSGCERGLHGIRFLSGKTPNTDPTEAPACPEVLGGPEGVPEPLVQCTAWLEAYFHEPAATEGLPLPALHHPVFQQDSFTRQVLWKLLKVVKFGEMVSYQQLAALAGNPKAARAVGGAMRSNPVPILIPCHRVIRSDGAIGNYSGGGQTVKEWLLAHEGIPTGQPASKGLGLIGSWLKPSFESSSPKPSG
Kind of data set: Inactivation of ATase activity in Yoshida cells. In kind it is cell-based. The protocol: Mammalian cells were cultured under standard conditions. For example, Raji (a human lymphoblastoid cell line from a Burkitt's lymphoma) cells were grown in suspension culture in RPMI medium supplemented with 10% horse serum. A375M cells are human melanoma cells from which the xenografts described below were established following subcutaneous injection into nude mice: WiDr cells are a human colon carcinoma cell line: Hamster+120 cells are a mitozolomide-selected subline of a Chinese hamster lung fibroblast V79 cell line called RJKO: Yoshida cells are a rat carcinosarcoma cell line and YRbus is a busulphan resistant subline thereof: XP cells are an SV40-transformed fibroblast cell line originally from the skin of a Xeroderma pigmentosum patient, pHMGhAT2b cells are a clone of these cells that have been transfected with a mammalian cell expression vector containing the human ATase cDNA and pHMGla cells are a clone that have been transfected with the expression vector only (i.e. one not containing the human ATase cDNA). Cell pellets were resuspended in cold (4°C) buffer I containing 2 µg/ml leupeptin and sonicated for 10 seconds at 12 µ peak to peak distance. After cooling in ice, the cells were sonicated for a further 10 seconds at 18 µ. Immediately after sonication, 0.01 volumes of 8.7 mg/ml phenylmethanesulphonylfluoride in ethanol was added and the sonicates centrifuged at 15 000 g for 10 minutes at 4°C to pellet cell debris. The supernatant was kept for determination of ATase activity (see below).
Cells were diluted to 10^6/ml in culture medium containing either the appropriate concentration of inactivator or an equivalent volume of vehicle (DMSO). Following incubation at 37°C for 2 hours the cells were harvested by centrifugation, washed twice with PBS and the resulting cell pellets (between 1-2 x 10^7 per pellet) stored at -20°C. ATase activity was determined as described above, in duplicate sonicated cell extracts and expressed as the percentage activity remaining based on that present in the untreated controls (for example 350-450 fm/mg in Raji cells).

In the case of `Nc1nc(OCc2ccco2)c2nc[nH]c2n1` [B.4203, O^6-furfurylguanine], the “toxic concentrations in V79 cells relative to those at which sensitization to BCNU was observed” value in data set [1] (Figs 5 & 6) is on record as “at least 100 times”. The “susceptibility of XP cells to the growth inhibitory effects of the inactivator” value in the data set with XP cells is “as susceptible”. For the same compound, the selectivity ratio in data set [2] is ≥ 100. In the data set with A375M cells, the “A375M sensitization (D50.^C/D50.^I) 0.5uM” value is 2.0. For the same compound, in the data set on A375M cells, the “A375M sensitization (D50.^C/D50.^I) 5.0uM” value was 2.5. Also, the IC50 on ATase [3] (Human WiDr cells, 2 hours at 37°C, read-out: Inactivation of ATase in Mammalian Cells I50(µM) Human WiDr) was 0.08 µM; at ATase [4] (Human XP cells, 2 hours at 37°C, read-out: Inactivation of ATase in Mammalian Cells I50(µM) Human XP) it was 0.06 µM; in the data set on ATase [5], 0.04 to 0.12 µM; at ATase [6] (Rat Yoshida cells, 2 hours at 37°C, read-out: Inactivation of ATase in Mammalian Cells I50(µM) Rat Yoshida), 0.06 µM.

Take `Nc1nc(OCc2cccs2)c2nc[nH]c2n1` [B.4205, O^6-thenylguanine]: the “doses producing some growth inhibition of V79 cells” value in data set [1] (inactivator alone, up to 600µM, 2h at 37°, Figure 5) is “no such effects were seen”. The “susceptibility of XP cells to the growth inhibitory effects of the inactivator” value with XP cells is listed as “more sensitive than V79 cells”. In data set [2], the selectivity ratio is ≥ 100. Besides, in the data set on A375M cells, the “A375M sensitization (D50.^C/D50.^I) 0.5uM” value is recorded as 2.8. Also, the “A375M sensitization (D50.^C/D50.^I) 1.0uM” value in the data set with A375M cells (inactivator 1.0uM 2 hours before) amounted to 2.3. Moreover, the “A375M sensitization (D50.^C/D50.^I) 5.0uM” value with A375M cells was 3.5. The IC50 at ATase [3] is 0.02 µM; at ATase [4] it was 0.03 µM; in the data set with ATase [5], 0.02 to 0.03 µM; on ATase [6], 0.02 µM.
